Laboratory results published in paper PMC9569447 (International Journal of Molecular Sciences, 2022).
Where “and” joins values, the source holds several entries; their conditions need not be identical. Equal values may be shown once. Numbered stars: 1 amine (or outer) side, 2 acyl side, 3 side chain; on linkers, the order of the positions; unused ones are H or OH. Bridge positions count the residues as written; N and C are the ends. Square brackets hold non-standard residues; d marks the D form. Side chains are listed from the residue outwards. Peptide text beside a SMILES is read from it. * marks the point of attachment. PEG8 = NCCOCCOCCOCCOCCOCCOCCOCCOCCC(=O)O; Palmitoyl = CCCCCCCCCCCCCCCC(=O)*; hCys = N[C@@H](CCS)C(=O)O; X1 = O=C(CC[*:2])[*:1]

Experiments:
[1] = tested on: diet-induced obese (DIO) Sprague Dawley rats; assay type: in vivo
Source text: Male Sprague Dawley rats were fed 60% HF diet (formula: D12492; Research Diets, Inc; New Brunswick, NJ, USA; 5.21 kcal/g) for 16 weeks prior to the start of the study. Rats were then singly housed in BioDAQ cages (Research Diets, Inc.; New Brunswick, NJ, USA) and allowed to acclimate to their new environment for 10 days. Baseline measures of body weight, food intake and water intake were taken for one week to balance the groups and create feeding pairs. Each group (n = 6 animals/group) averaged 714.47 ± 81.60 g at baseline (Table 3).
Effects of ASK2131 were compared to a vehicle-treated group, OXT-treated group, as well as a pair-fed control group. Three days of baseline measures were taken before subcutaneous treatment administration began on day 4 of the study. Assessments were made to body weight, food intake and water intake. ASK2131 was administered at 50 nmol/kg throughout the entire study period. […] OXT-treated animals were started at 50 nmol/kg dose for two days, followed by 150 nmol/kg, then 300 nmol/kg, until ending at 600 nmol/kg for the remainder of the study.

[2] = target: T1, hOXTR (Homo sapiens, UniProt P30559); experiment: In vitro functional assay at the OXT receptor (Ca2+ flux, fluorometric imaging plate reader); assay type: cell-based; details: ratio of EC50 values hOXTR/hV2R
T1 construct: expressed in transfected cells
T1 sequence (P30559 1-389): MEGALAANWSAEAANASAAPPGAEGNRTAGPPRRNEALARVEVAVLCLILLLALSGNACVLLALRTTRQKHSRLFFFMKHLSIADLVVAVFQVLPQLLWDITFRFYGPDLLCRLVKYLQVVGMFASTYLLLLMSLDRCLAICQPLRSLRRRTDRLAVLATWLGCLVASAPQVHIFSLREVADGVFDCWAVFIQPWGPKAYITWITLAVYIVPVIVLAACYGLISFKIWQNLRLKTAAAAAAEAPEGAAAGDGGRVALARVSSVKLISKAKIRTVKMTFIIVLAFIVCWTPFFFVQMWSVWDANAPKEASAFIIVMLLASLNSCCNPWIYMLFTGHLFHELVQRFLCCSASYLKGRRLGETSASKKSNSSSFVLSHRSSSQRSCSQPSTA
Experimental: In a typical experimental protocol, stably transfected Chinese hamster ovary (CHO) hOTR NFAT bLac cells were plated at a density of 10,000 cells/well in a 384-well plate in growth medium (Dulbecco’s modified Eagle’s medium + Glutamax (Thermo Fisher Scientific, Waltham, MA, USA), 10% dialyzed fetal bovine serum). The next day calcium-sensitive, fluo-4 dye (Invitrogen, Carlsbad, CA, USA) and probenecid (Invitrogen; 2.5 mM) was dissolved in 20 mL warm dye loading buffer (Hanks’ balanced salt solution with calcium and magnesium, 20 mM Hepes, pH 7.4) and added to each well. Plates were incubated for 60–120 min in a 37 °C cell incubator to allow cells to uptake the dye. […] After dye-loading, the cell plates were placed on the fluorometric imaging plate reader. A total of […] of test compound was added to the […] of dye on the cells, and intracellular Ca^2+ was monitored for 90 s. Intracellular Ca^2+ concentrations were calculated as the maximum increase over basal levels. Responses were normalized to control responses. Data were analyzed by curve fitting.

CCCCCCCCCCCCCCCC(=O)NCCOCCOCCOCCOCCOCCOCCOCCOCCC(=O)NCCCC[C@H](NC(=O)CNC(=O)[C@@H]1CCSCCC(=O)N[C@@H](Cc2ccc(O)cc2)C(=O)N[C@@H]([C@@H](C)CC)C(=O)N[C@@H](CCC(N)=O)C(=O)N[C@@H](CC(N)=O)C(=O)N1)C(=O)NCC(N)=O [ASK2131] (YIQN[hCys]GK([PEG8-Palmitoyl])G-NH2; linker N-5 via X1)
decrease in food intake ([1]; 50 nmol/kg, first 8 days of treatment): 35%
reduction in food intake ([1]; 50 nmol/kg, last 8 days of treatment): 25%
average decline in food intake ([1]; 50 nmol/kg, whole 22-day treatment): 28%
body weight, predicted mean difference (PMD) vs vehicle-treated group ([1]; after 2 days of drug administration, 50 nmol/kg sc, 95% CI −6.52 to −1.15%, p = 0.0011): −3.83%
body weight, predicted mean difference (PMD) vs OXT-treated group ([1]; after 2 days of drug administration, both 50 nmol/kg sc, 95% CI −6.45 to −1.08%, p = 0.0014): −3.77%
Posttreatment body weight ([1]; after 22 days once daily sc, ASK2131 50 nmol/kg, OXT titrated 50 to 600 nmol/kg, n = 6, mean ± SEM): 676 ± 42 g
% change in body weight ([1]; after 22 days vs baseline, once daily sc, ASK2131 50 nmol/kg, OXT titrated 50 to 600 nmol/kg, n = 6, mean ± SEM): −6.6 ± 1.3% and −6.6 ± 1.3 ^c,d %
body weight reduction compared to baseline ([1]; after 22 days, ASK2131 50 nmol/kg sc daily, mean ± standard error): 6.6 ± 1.3%
body weight change, mean difference (MD) vs vehicle ([1]; after 22 days, ASK2131 50 nmol/kg/d, 95% CI −15.6 to −7.4, p < 0.0001): −11.5%
cumulative food intake, mean difference (MD) vs vehicle ([1]; after 22 days, ASK2131 50 nmol/kg/d, 95% CI −1031 to −213.1, p < 0.0008): -621.9 kcal
reduction of food intake compared to baseline ([1]; day 3, 50 nmol/kg/d sc): 39 ± 9%
food intake, predicted mean difference (PMD) vs vehicle-treated group ([1]; day 3, 50 nmol/kg/d sc, 95% CI −80.47 to −11.51%, p = 0.0102): −45.99%
tolerability ([1]; rat, in vivo): well tolerated
water intake ([1]; rat, in vivo): without relevant changes of water intake
body weight reduction (weight loss) vs vehicle at end of treatment ([1]; study completion, 22 days, ASK2131 50 nmol/kg, OXT titrated up to 600 nmol/kg): 11.5%
Ratio hOXTR/hV2R [2]: 3.06
